Test results: patent publication US20160120888A1, “ANTICANCER DRUG” (KTN BIOTEC, INC., priority 2013, published 2016)

Key:
Assay type in all cases: cell-based
[1] = system: human malignant pleural mesothelioma cell lines NCI-H28, NCI-H2052, NCI-H2452, MSTO-211H; assay: Cell viability assay (MTT), human malignant pleural mesothelioma cell lines; conditions: 48 hr treatment; for cell death induction (MTT intensity relative to cells free of drug treatment): FIG. 2 / FIG. 3
Procedure: FIG. 2 is a graph showing that diDCP-LA-PI and diDCP-LA-PIe induce cell death of human malignant pleural mesothelioma in a concentration-dependent manner. The cells were treated with a given concentration of diDCP-LA-PI or diDCP-LA-PIe for 48 hr, and subjected to MTT assay.
FIG. 3 is a graph showing that DO-PI and DP-PI induce the same level of cell death of human malignant pleural mesothelioma in a concentration-dependent manner. The cells were treated with a given concentration of DO-PI or DP-PI for 48 hr, and subjected to MTT assay.
NCI-H28, NCI-H2052, NCI-H2452, and MSTO-211H which are cell lines of human malignant pleural mesothelioma were used.
These cells were purchased from American Type Culture Collection (Manassas, Va., USA). The cells were cultured in Roswell Park Memorial Institute (RPMI)-1640 medium added with 0.003% (w/v) L-glutamine.
(§1) In all cell cultures, the cells were incubated in a medium added with 10% (v/v) heat-inactivated bovine serum, penicillin (final concentration, 100 U/ml) and streptomycin (final concentration, 0.1 mg/ml) in a humid environment under 5% CO2 and 95% air at 37° C.
(§2) The cell viability was evaluated by an established method using 3-(4,5-dimethyl-2-thiazolyl)-2,5-diphenyl-2H-tetrazolium bromide (MTT).

[2] = system: MKN28 human gastric cancer cell line; assay: Cell viability assay (MTT), MKN28 gastric cancer cells; conditions: 48 hr treatment, FIG. 4B
Procedure: (§3) FIG. 4 is a graph showing that diDCP-LA-PI and diDCP-LA-PIe induce cell death of (A) human lung cancer cell (Lu65), (B) gastric cancer cell (MKN28), (C) breast cancer cell (MCF-7) in a concentration-dependent manner. The cells were treated with a given concentration of diDCP-LA-PI or diDCP-LA-PIe for 48 hr, and subjected to MTT assay.
MKN28 human gastric cancer cell line was provided by Dr. Tatematsu (Nagoya University, Japan), and cultured in RPMI-1640 medium.
as §1, §2

[3] = system: Lu-65 human lung cancer cell line; assay: Cell viability assay (MTT), Lu-65 lung cancer cells; conditions: human lung cancer cell (Lu65), 48 hr treatment, FIG. 4A
Procedure: as §3
Lu-65 human lung cancer cell line was purchased from Health Science Research Resources Bank (Osaka, Japan), and cultured in RPMI-1640 medium.
as §1, §2

[4] = system: MCF-7 human breast cancer cell line; assay: Cell viability assay (MTT), MCF-7 breast cancer cells; conditions: breast cancer cell (MCF-7), 48 hr treatment, FIG. 4C
Procedure: as §3
MCF-7 human breast cancer cell line was obtained from RIKEN cell bank (Ibaraki, Japan) and cultured in Dulbecco's modified Eagle's medium (DMEM).
as §1, §2

| Compound | cell death induction (MTT intensity relative to cells free of drug treatment) [1] | cell death induction (MTT intensity relative to cells free of drug treatment) [2] | cell death induction (MTT intensity relative to cells free of drug treatment) [3] | cell death induction (MTT intensity relative to cells free of drug treatment) [4] | effectiveness of cell death induction compared with diDCP-LA-PI [2] | effectiveness of cell death induction compared with diDCP-LA-PI [3] | effectiveness of cell death induction compared with diDCP-LA-PI ([1]; human malignant pleural mesothelioma cells, FIG. 2) | effectiveness of cell death induction compared with diDCP-LA-PI [4] |
| --- | --- | --- | --- | --- | --- | --- | --- | --- |
| CCCCCCCC/C=C\CCCCCCCC(=O)OC[C@H](COP(=O)(O)OC1C(O)C(O)C(O)[C@@H](O)C1O)OC(=O)CCCCCCC/C=C\CCCCCCCC (some centres unmarked) [DO-PI, 1,2-dioleoyl-sn-glycerol-3-phospho-(1′-myo-inositol)] | induce the same level of cell death of human malignant pleural mesothelioma cells in a concentration dependent manner | – | – | – | – | – | – | – |
| CCCCCCCCCCCCCCCC(=O)OC[C@H](COP(=O)(O)O[C@@H]1[C@H](O)[C@H](O)[C@@H](O)[C@H](O)[C@H]1O)OC(=O)CCCCCCCCCCCCCCC [DP-PI, 1,2-dipalmitoyl-sn-glycerol-3-phospho-(1′-myo-inositol)] | induce the same level of cell death of human malignant pleural mesothelioma cells in a concentration dependent manner | – | – | – | – | – | – | – |
| 1,2-O-bis-[8-{2-(2-pentyl-cyclopropylmethyl)-cyclopropyl}-octanoyl]-sn-glycerol-3-phosphatidyl-D-inositol [diDCP-LA-PI] | induce cell death of human malignant pleural mesothelioma cells in a concentration dependent manner | induce cell death of human lung cancer, gastric cancer and breast cancer in a concentration dependent manner | induce cell death of human lung cancer, gastric cancer and breast cancer in a concentration dependent manner | induce cell death of human lung cancer, gastric cancer and breast cancer in a concentration dependent manner | – | – | – | – |
| 1,2-O-bis-[8-{2-(2-pentyl-cyclopropylmethyl)-cyclopropyl}-octanoyl]-sn-glycerol-3-phosphatidyl-L-1-inositol [diDCP-LA-PIe] | induce cell death of human malignant pleural mesothelioma cells in a concentration dependent manner | induce cell death of human lung cancer, gastric cancer and breast cancer in a concentration dependent manner | induce cell death of human lung cancer, gastric cancer and breast cancer in a concentration dependent manner | induce cell death of human lung cancer, gastric cancer and breast cancer in a concentration dependent manner | more effective | more effective | more effective | more effective |
